# Measurements as given in US9139596B2, “Cyclic prodrugs of duocarmycin analogs” (The Scripps Research Institute, priority 2012, dated 2015).
# Like-named read-outs stand apart in the source and are kept apart here.
# Experiments:
# [1] = Stability in mouse plasma (Table 4)
# [2] = test system: L1210 murine leukemia cell line; test: In vitro cytotoxic activity (cell growth inhibition), L1210; type: cell-based; conditions: for IC50: Mus musculus
# Experimental: In Vitro Cytotoxic Activity. Both (+)- and ent-(−)-6 and their N-Boc precursors 16 were tested for cell growth inhibition in a cytotoxic assay with the L1210 murine leukemia cell line.
# [3] = test system: L1210 murine leukemia cells implanted ip; test: In vivo antitumor activity (L1210, ip); conditions: for Surviving Mice: live animals after 250 days
# Experimental: Therefore, the in vivo antitumor activity of (+)-6 was assessed alongside seco-CBI-indole2 (4) in an antitumor model consisting of L1210 murine leukemia cells implanted ip into […] which has been used historically as an initial antitumor model for comparisons in this class.^11,12,14,15 A dose range of 300 to 9000 μg/kg for prodrug (+)-6 (scaled to its in vitro cytotoxic activity IC50) and 60 to 500 μg/kg for seco-CBI-indole2 (4) and a dosing schedule (administered three times ip on days 1, 5, and 9) for both compounds was employed.
# B6D2F1 mice were injected intraperitoneal (i.p.) with syngeneic L1210 cells (1×10^6) on day 0. Ten mice were randomly assigned to control vehicle or treatment groups for compounds (+)-4 and (+)-6 at doses of 60, 100, 250, and 500 μg/kg/inj for (+)-4 or 300, 1000, 3000, and 9000 μg/kg/inj for (+)-6. Compounds (+)-4 and (+)-6 were formulated in 100% DMSO, and injected i.p. on study days 1, 5, and 9. Following injection of tumor cells, animals were monitored daily and weighed two times per week. Percent survival (T/C) for treated and control groups were determined by dividing the total survival days for each treatment group by the total survival days for the control group and multiplying ×100. All animal studies were carried out in the animal facilities of The University of Kansas Medical Center with strict adherence to the guidelines of the IACUC Animal Welfare Committee of KUMC (IACUC approval #2009-1837).
# [4] = test system: w794 DNA; test: DNA alkylation in cell-free systems; type: biochemical
# From the text: Lane 1, control DNA; lanes 2-5, Sanger G, C, A, and T sequencing reactions; lanes 6-8, (+)-1 (1×10^−4 to 1×10^−6); lanes 9-10, (−)−1 (1×10^−3 to 1×10^−4); lanes 11-12, (+)-6 (1×10^−1 to 1×10^−2).
# [5] = Stability in pH 7.0 phosphate buffer; conditions: for half-life: buffer
# [6] = Stability in human plasma
# Experimental: Reagents and solvents were purchased reagent-grade and used without further purification. Pooled human plasma, with sodium citrate as an anticoagulant, was purchased from Innovative Research and stored at −20° C. […] All reactions were performed in oven-dried glassware under an Ar atmosphere. Evaporation and concentration in vacuo was performed at 20° C. […] Chiral phase HPLC was performed using a Shimadzu HPLC on a semi-preparative Diacel ChiralCel OD column (0.46 cm×25 cm) with a flow rate of 7 mL/min and with UV detection at λ=254 nm. Optical rotations were determined on a Rudolf Research Analytical Autopol III Automatic Polarimeter (λ=589 nm, 25° C.).
# [7] = 300 μg/kg i.p. on days 1, 5, and 9
# [8] = 1000 μg/kg i.p. on days 1, 5, and 9
# [9] = 3000 μg/kg i.p. on days 1, 5, and 9
# [10] = 9000 μg/kg i.p. on days 1, 5, and 9
smiles,measurement,setting,value
"O=C1Nc2cccc3c4c(cc(c23)O1)N(C(=O)c1cc2cc(NC(=O)c3cc5ccccc5[nH]3)ccc2[nH]1)C[C@H]4CCl [Compound 6, N-(2-(10-(Chloromethyl)-5-oxo-5,8,9,10-tetrahydro-4H-pyrrolo[3′,2′:5,6]naphtho[1,8-de][1,3]oxazine-8-carbonyl)-1H-indol-5-yl)-1H-indole-2-carboxamide]",half-life,[1],12 h
same,fold less potent than the parent drug 20,[2]; L1210,30-70 fold
same,fold more potent than its unnatural enantiomer,[2]; L1210,6 fold
same,potency of natural (S)- versus unnatural (R)-enantiomer,[2]; L1210,about one order of magnitude more potent
same,times more potent than its N-Boc precursor 16,[2]; L1210,100 to 1000 times
same,fold less potent than the free drug seco-CBI-indole2 4,"[2]; L1210, natural enantiomer",approximately 200 fold
same,IC50,"[2]; L1210, natural (S)-enantiomer, Table 4, read-out: In vitro IC50 L1210 natural",6.6 nM
same,IC50,"[2]; L1210, natural enantiomer, Table 2, read-out: IC50 L1210 natural",6.6 nM
same,IC50,"[2]; L1210, unnatural (R)-enantiomer, Table 4, read-out: In vitro IC50 L1210 unnatural",40 nM
same,IC50,"[2]; L1210, unnatural enantiomer, Table 2, read-out: IC50 L1210 unnatural",40 nM
same,IC50,"[2]; L1210, stated range, read-out: in vitro cellular potency (IC50)",1 to 10 nM
same,MSP (Mean Survival Period),[3]; [7],24.7 days
same,T/C (Treated/Control MSP x 100),[3]; [7],140
same,Surviving Mice,[3]; [7],0/10
same,MSP (Mean Survival Period),[3]; [8],>48.5 days
same,T/C (Treated/Control MSP x 100),[3]; [8],>275
same,Surviving Mice,[3]; [8],1/10
same,MSP (Mean Survival Period),[3]; [9],>55.3 days
same,T/C (Treated/Control MSP x 100),[3]; [9],>310
same,Surviving Mice,[3]; [9],1/10
same,MSP (Mean Survival Period),[3]; [10],>172.6 days
same,T/C (Treated/Control MSP x 100),[3]; [10],>980
same,T/C (Treated/Control MSP x 100),"[3]; 9000 μg/kg i.p. on days 1, 5, and 9, listed as (+)-6",> 980
same,Surviving Mice,[3]; [10],5/10
same,antitumor activity over the dose range examined,"[3]; 300 to 9000 μg/kg (30-fold range) i.p. on days 1, 5, and 9",productive antitumor activity over the entire and much larger dose range examined
same,tolerance at the injection sites,"[3]; ip administration, compared with the free drug",tolerated at the injection sites of the animals much better than the free drug
same,DNA alkylation,[4],incapable of alkylating DNA
same,half-life,"[5]; pH 7, Stability t1/2, pH 7.0 phosphate buffer, Table 4",> 168 h
same,half-life,"[5]; pH 7, t1/2, pH 7.0 phosphate buffer",> 672 h
same,cleavage of the prodrug,[5]; pH 7.0 phosphate buffer,no cleavage observed
same,free drug release,"[6]; human plasma, 48 h",5%
same,half-life,"[6]; human, plasma",> 48 h
